Data published in US20250304620A1, “ANTIMICROBIAL PEPTIDE AND APPLICATION THEREOF” (priority 2023, published 2025).
In brackets after ≈: the same amount, converted by molar mass. Non-standard residues stand in square brackets, D forms with d. Residues, ends and D or L forms follow the SMILES beside them. dPhe(3,4-Cl2) = N[C@H](Cc1ccc(Cl)c(Cl)c1)C(=O)O; dPhe(3,4-F2) = N[C@H](Cc1ccc(F)c(F)c1)C(=O)O; dPhe(4-Cl) = N[C@H](Cc1ccc(Cl)cc1)C(=O)O

What was measured:
[1] = tested on: Staphylococcus aureus (NRS 384); details: NRS 384, 3 h
Procedure: Trypsin (250 U/mg, pH=8.0) and AMPs (LV-1 to LV-30) were mixed in a ratio of 1:10 (w/w) and added to a reaction buffer (0.2 M sodium phosphate, 1 mM CaCl2), pH 7.5), and then incubated at 37° C. for 3 h.

[2] = Serum stability assay (residual level by RP-HPLC); details: human
[3] = tested on: Staphylococcus aureus (NRS 384); assay: microbe, parasite or virus in culture; format: cell-based; details: NRS 384
How it was run: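 MICs were read against S. aureus strain NRS 384 using twofold serial dilution by CLSI microdilution rules. Levofloxacin and Cbf-K16 were the reference controls, and the test was repeated 5 times in parallel.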

[4] = tested on: Candida glabrata ATCC 15126; format: cell-based
Text: (§1) According to the Standards of Clinical and Laboratory Standards Institute (CLSI) of the USA for antimicrobial drug susceptibility test operation standards, the micronutrient serial twofold dilution method was used further determine MICs of 30 AMPs (S/N: LV-1 to LV-30) 10 clinically common sensitive strains and 6 fungi in clinical practice. The experiment was repeated 5 times in parallel.

Candida krusei ATCC 6258 = format: cell-based
Text: as §1

Enterococcus ATCC 29212 = format: cell-based
Text: as §1

[5] = tested on: Trichophyton ATCC MYA-4438; format: cell-based
Text: as §1

[6] = tested on: Corynebacterium ATCC 7715; format: cell-based
Text: as §1

[7] = tested on: Candida albicans ATCC MYA-2876; format: cell-based
Text: as §1

[8] = tested on: Staphylococcus aureus ATCC 25923; format: cell-based
Text: as §1

[9] = tested on: Serratia marcescens ATCC 29021; format: cell-based
Text: as §1

Candida utilis ATCC 9950 = format: cell-based
Text: as §1

[10] = tested on: Klebsiella pneumoniae ATCC 700603; format: cell-based
Text: as §1

[11] = tested on: Pseudomonas aeruginosa ATCC 27853; format: cell-based
Text: as §1

[12] = tested on: Salmonella typhimurium ATCC 14028; format: cell-based
Text: as §1

[13] = tested on: Candida tropicalis ATCC 750; format: cell-based
Text: as §1

[14] = tested on: Escherichia coli ATCC 25922; format: cell-based
Text: as §1

[15] = tested on: Bacillus subtilis ATCC 6633; format: cell-based
Text: as §1

[16] = tested on: Shigella flexneri ATCC 12022; assay: MIC against clinically common bacterial strain; format: cell-based
Text: as §1

[17] = tested on: Methicillin-resistant Staphylococcus aureus (MRSA); format: cell-based; details: Methicillin-resistant
Text: (§2) According to the Standards of Clinical and Laboratory Standards Institute (CLSI) of the USA for antimicrobial drug susceptibility test operation standards, the micronutrient serial twofold dilution method was used further determine MICs of the antimicrobial peptides LV-1 to LV-30 against 5 clinically common drug-resistant bacterial strains. The experiment was repeated 5 times in parallel. […] The tested drug-resistant strains included Methicillin-resistant Staphylococcus aureus (MRSA), carbapenem-resistant Escherichia coli (CREC), vancomycin-resistant Enterococcus (VRE), carbapenem-resistant Pseudomonas aeruginosa (CRPA), and carbapenem-resistant Klebsiella pneumoniae (CRKP).

[18] = tested on: carbapenem-resistant Escherichia coli (CREC); format: cell-based; details: carbapenem-resistant (CREC)
Text: as §2

[19] = tested on: vancomycin-resistant Enterococcus (VRE); format: cell-based
Text: as §2

[20] = tested on: carbapenem-resistant Klebsiella pneumoniae (CRKP); format: cell-based; details: carbapenem-resistant (CRKP)
Text: as §2

[21] = tested on: carbapenem-resistant Pseudomonas aeruginosa (CRPA); format: cell-based; details: carbapenem-resistant (CRPA)
Text: as §2

SMILES	Trypsin MIC [1] [µg/mL]	remaining at 12 h, 0.91 mg/mL [2] [%]	MIC against Staphylococcus aureus (NRS 384) [3] [µg/mL]	MIC Candida glabrata ATCC 15126 [4] [µg/mL]	MIC Candida krusei ATCC 6258 (Candida krusei ATCC 6258) [µg/mL]	MIC Enterococcus ATCC 29212 (Enterococcus ATCC 29212) [µg/mL]	MIC Trichophyton ATCC MYA-4438 [5] [µg/mL]	MIC Corynebacterium ATCC 7715 [6] [µg/mL]	MIC Candida albicans ATCC MYA-2876 [7] [µg/mL]	MIC Staphylococcus aureus ATCC 25923 [8] [µg/mL]	MIC Serratia marcescens ATCC 29021 [9] [µg/mL]	MIC Candida utilis ATCC 9950 (Candida utilis ATCC 9950) [µg/mL]	MIC Klebsiella pneumoniae ATCC 700603 [10] [µg/mL]	MIC Pseudomonas aeruginosa ATCC 27853 [11] [µg/mL]	MIC Salmonella typhimurium ATCC 14028 [12] [µg/mL]	MIC Candida tropicalis ATCC 750 [13] [µg/mL]	MIC Escherichia coli ATCC 25922 [14] [µg/mL]	MIC Bacillus subtilis ATCC 6633 [15] [µg/mL]	MIC Shigella flexneri ATCC 12022 [16] [µg/mL]	MIC MRSA [17] [µg/mL]	other results
CC(=O)N[C@H](CCCNC(=N)N)C(=O)N[C@H](CCCCN)C(=O)N[C@H](CC(C)C)C(=O)N[C@H](CC(C)C)C(=O)N[C@H](Cc1ccc(F)c(F)c1)C(=O)N[C@H](CCCCN)C(=O)N[C@H](CC(C)C)C(=O)N[C@H](CCCCN)C(=O)N[C@H](Cc1ccc(F)c(F)c1)C(=O)N[C@H](CCCCN)C(=O)N[C@H](CCCNC(=N)N)C(N)=O [LV-6] (Ac-[dR][dK][dL][dL][dPhe(3,4-F2)][dK][dL][dK][dPhe(3,4-F2)][dK][dR]-NH2)	1	98	1 (≈ 0.629 µM)	8 (≈ 5.03 µM)	4 (≈ 2.52 µM)	2 (≈ 1.26 µM)	8 (≈ 5.03 µM)	2 (≈ 1.26 µM)	16 (≈ 10.1 µM)	1 (≈ 0.629 µM)	8 (≈ 5.03 µM)	8 (≈ 5.03 µM)	4 (≈ 2.52 µM)	1 (≈ 0.629 µM)	2 (≈ 1.26 µM)	4 (≈ 2.52 µM)	1 (≈ 0.629 µM)	4 (≈ 2.52 µM)	4 (≈ 2.52 µM)	4 (≈ 2.52 µM)	MIC CREC [18]: 2 µg/mL (≈ 1.26 µM); MIC VRE [19]: 2 µg/mL (≈ 1.26 µM); MIC CRKP [20]: 8 µg/mL (≈ 5.03 µM); MIC CRPA [21]: 8 µg/mL (≈ 5.03 µM)
CC(=O)N[C@H](CCCNC(=N)N)C(=O)N[C@H](CCCCN)C(=O)N[C@H](CC(C)C)C(=O)N[C@H](CC(C)C)C(=O)N[C@H](Cc1ccc(Cl)cc1)C(=O)N[C@H](CCCCN)C(=O)N[C@H](CC(C)C)C(=O)N[C@H](CCCCN)C(=O)N[C@H](Cc1ccc(Cl)cc1)C(=O)N[C@H](CCCCN)C(=O)N[C@H](CCCNC(=N)N)C(N)=O [LV-7] (Ac-[dR][dK][dL][dL][dPhe(4-Cl)][dK][dL][dK][dPhe(4-Cl)][dK][dR]-NH2)	1	98.9	1 (≈ 0.63 µM)	8 (≈ 5.04 µM)	8 (≈ 5.04 µM)	8 (≈ 5.04 µM)	8 (≈ 5.04 µM)	4 (≈ 2.52 µM)	8 (≈ 5.04 µM)	1 (≈ 0.63 µM)	8 (≈ 5.04 µM)	8 (≈ 5.04 µM)	2 (≈ 1.26 µM)	2 (≈ 1.26 µM)	4 (≈ 2.52 µM)	8 (≈ 5.04 µM)	4 (≈ 2.52 µM)	4 (≈ 2.52 µM)	4 (≈ 2.52 µM)	2 (≈ 1.26 µM)	MIC CREC [18]: 8 µg/mL (≈ 5.04 µM); MIC VRE [19]: 4 µg/mL (≈ 2.52 µM); MIC CRKP [20]: 4 µg/mL (≈ 2.52 µM); MIC CRPA [21]: 2 µg/mL (≈ 1.26 µM)
CC(=O)N[C@H](CCCNC(=N)N)C(=O)N[C@H](CCCCN)C(=O)N[C@H](CC(C)C)C(=O)N[C@H](CC(C)C)C(=O)N[C@H](Cc1ccc(Cl)c(Cl)c1)C(=O)N[C@H](CCCCN)C(=O)N[C@H](CC(C)C)C(=O)N[C@H](CCCCN)C(=O)N[C@H](Cc1ccc(Cl)c(Cl)c1)C(=O)N[C@H](CCCCN)C(=O)N[C@H](CCCNC(=N)N)C(N)=O [LV-8] (Ac-[dR][dK][dL][dL][dPhe(3,4-Cl2)][dK][dL][dK][dPhe(3,4-Cl2)][dK][dR]-NH2)	1	97.6	1 (≈ 0.604 µM)	16 (≈ 9.66 µM)	16 (≈ 9.66 µM)	2 (≈ 1.21 µM)	8 (≈ 4.83 µM)	2 (≈ 1.21 µM)	16 (≈ 9.66 µM)	1 (≈ 0.604 µM)	2 (≈ 1.21 µM)	8 (≈ 4.83 µM)	4 (≈ 2.42 µM)	2 (≈ 1.21 µM)	2 (≈ 1.21 µM)	16 (≈ 9.66 µM)	2 (≈ 1.21 µM)	2 (≈ 1.21 µM)	4 (≈ 2.42 µM)	4 (≈ 2.42 µM)	MIC CREC [18]: 4 µg/mL (≈ 2.42 µM); MIC VRE [19]: 8 µg/mL (≈ 4.83 µM); MIC CRKP [20]: 2 µg/mL (≈ 1.21 µM); MIC CRPA [21]: 8 µg/mL (≈ 4.83 µM)
